# Data as given in US10906913B2, “NMDA receptor modulators and uses thereof” (Northwestern University, priority 2008, dated 2021).
# “Also recorded” adds a separate entry of the source. Where two headings read alike, the source gives them in different places. Peptide text beside a SMILES is read from it.
# Assays:
# NMDA receptor [1] = target: T1, NMDA receptor (Rattus norvegicus, UniProt P35439); assay: NMDA receptor-gated single neuron conductance (INMDA) in hippocampal CA1 pyramidal neurons; assay type: cell-based; conditions: for enhancement of INMDA compared among the tested compounds: comparison of compound B, AK-51, AK-52
# T1 construct: NMDA receptor-gated single neuron conductance (INMDA) in hippocampal CAI pyramidal neurons; from tissue; host or cells: in vitro hippocampal slices, CA1 pyramidal neurons
# Description: (§1) The effects of the three compounds were examined on 1) NMDA receptor-gated single neuron conductance (INMDA) in hippocampal CAI pyramidal neurons and 2) the magnitude of long-term potentiation (LTP) and long term depression (LTD) at Schaffer collateral CA1 synapses, in in vitro hippocampal slices.
# [2] = tested on: Schaffer collateral-CA1 synapses; assay: Long-term potentiation (LTP) at Schaffer collateral-CA1 synapses, in vitro hippocampal slices; assay type: cell-based; conditions: for magnitude of LTP: high frequency stimulus; for magnitude / induction of LTP: concentration not given
# Description: as §1
# [3] = tested on: Schaffer collateral-CA1 synapses; assay: Long term depression (LTD) at Schaffer collateral-CA1 synapses, in vitro hippocampal slices; assay type: cell-based; conditions: 1 μM; low frequency stimulus 2 Hz/10 min
# Description: as §1
# rats = assay: Alternating T-maze learning task; assay type: in vivo, rat; conditions: 60 min before testing
# Protocol: Male 3 month old Fisher 344 X Brown Norway F1 cross rats (FBNF1) were used for this study. The t-maze was constructed with arms (45 cm long×10 cm wide×10 cm high) made of black Plexiglas enclosing the maze. Two plastic bottle caps, lined with wire mesh, were secured to the end of each goal arm in which the food reward (Cheerios, 100 mg/piece) was placed. Before the start of training, animals were gradually deprived of food to approximately 85% of their free feeding weight. On three successive days before the start of training, animals were habituated to the t-maze with food located throughout the maze. […] On the subsequent testing day, animals were given injections of AK51 (0.3, 1, 3, 10, 30 mg/kg p.o.), or DMSO vehicle (1 mg/ml; Sigma, Saint Louis Mo.) in a blind manner via gastric gavage (4″, 16-ga; Braintree Scientific, Braintree Mass.) 60 min prior to the start of testing (n=8-9 per group. On the first trial of testing, both arms were baited with food and for the subsequent 20 trials only alternating choices (opposite of the animal's previous choice) were rewarded (˜30 sec inter-trial interval). The number of trials to criterion (5 consecutive correct choices) was calculated for each animal. Data was analyzed by ANOVA followed by Fisher PLSD post hoc tests comparing individual drug doses to vehicle (α=0.05). […]
# Glutamate, AMPA = assay: Binding assay, Glutamate, AMPA; parameters: species or system rat; conditions: 10 μM
# Description: (§2) Table B depicts the results of binding assays against various targets with AK51: […]
# Glutamate, Kainate = assay: Binding assay, Glutamate, Kainate; parameters: species or system rat; conditions: 10 μM
# Description: as §2
# [4] = target: Glutamate, Metabotropic, mGlus (Homo sapiens, UniProt P41594); assay: Binding assay, Glutamate, Metabotropic, mGlus
# Glutamate, Metabotropic, mGlus, sequence (P41594 21-1212): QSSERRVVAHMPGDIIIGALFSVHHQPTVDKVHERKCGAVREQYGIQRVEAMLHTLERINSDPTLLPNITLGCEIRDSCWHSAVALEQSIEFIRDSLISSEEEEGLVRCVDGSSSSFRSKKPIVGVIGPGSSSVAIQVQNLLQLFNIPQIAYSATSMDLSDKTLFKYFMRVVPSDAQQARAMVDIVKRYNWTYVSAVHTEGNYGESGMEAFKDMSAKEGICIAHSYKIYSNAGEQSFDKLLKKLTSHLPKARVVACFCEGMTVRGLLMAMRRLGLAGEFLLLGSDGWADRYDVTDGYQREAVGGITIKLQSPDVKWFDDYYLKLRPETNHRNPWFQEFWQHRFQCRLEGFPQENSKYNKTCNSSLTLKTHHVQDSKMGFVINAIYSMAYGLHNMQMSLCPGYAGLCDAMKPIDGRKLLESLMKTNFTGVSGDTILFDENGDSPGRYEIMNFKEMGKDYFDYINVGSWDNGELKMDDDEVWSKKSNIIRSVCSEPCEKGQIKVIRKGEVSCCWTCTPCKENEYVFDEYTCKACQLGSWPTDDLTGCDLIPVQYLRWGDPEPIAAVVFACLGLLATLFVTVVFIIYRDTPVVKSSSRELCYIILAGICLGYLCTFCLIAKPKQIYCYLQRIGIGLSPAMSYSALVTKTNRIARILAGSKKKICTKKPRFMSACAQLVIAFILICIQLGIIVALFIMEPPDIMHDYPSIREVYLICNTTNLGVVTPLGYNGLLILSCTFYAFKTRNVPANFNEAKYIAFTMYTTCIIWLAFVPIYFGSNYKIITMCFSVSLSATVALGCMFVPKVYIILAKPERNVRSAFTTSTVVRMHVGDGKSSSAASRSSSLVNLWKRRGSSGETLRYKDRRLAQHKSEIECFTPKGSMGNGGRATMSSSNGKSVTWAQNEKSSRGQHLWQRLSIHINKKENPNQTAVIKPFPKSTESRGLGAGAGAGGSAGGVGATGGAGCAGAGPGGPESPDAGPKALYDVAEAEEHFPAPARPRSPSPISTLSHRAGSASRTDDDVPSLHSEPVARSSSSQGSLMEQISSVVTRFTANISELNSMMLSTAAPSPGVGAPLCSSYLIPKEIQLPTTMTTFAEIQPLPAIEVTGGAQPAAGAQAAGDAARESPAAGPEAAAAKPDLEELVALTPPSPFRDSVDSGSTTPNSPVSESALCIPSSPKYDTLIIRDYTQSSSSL
# Description: as §2
# Glutamate, NMDA, Agonism = assay: Binding assay, Glutamate, NMDA, Agonism; parameters: species or system rat; conditions: 10 μM
# Description: as §2
# Glutamate, NMDA, Glycine = Glutamate, NMDA, Glycine (Rattus norvegicus, UniProt P35439); assay: Binding assay, Glutamate, NMDA, Glycine
# Description: as §2
# [5] = target: Glutamate, NMDA, Phencyclidine (Rattus norvegicus, UniProt P35439); assay: Binding assay, Glutamate, NMDA, Phencyclidine
# Description: as §2
# [6] = target: Glutamate, NMDA, Polyamine (Rattus norvegicus, UniProt P35439+Q00960); assay: Binding assay, Glutamate, NMDA, Polyamine
# Glutamate, NMDA, Polyamine, sequence (Q00960 27-1482, other chains not shown): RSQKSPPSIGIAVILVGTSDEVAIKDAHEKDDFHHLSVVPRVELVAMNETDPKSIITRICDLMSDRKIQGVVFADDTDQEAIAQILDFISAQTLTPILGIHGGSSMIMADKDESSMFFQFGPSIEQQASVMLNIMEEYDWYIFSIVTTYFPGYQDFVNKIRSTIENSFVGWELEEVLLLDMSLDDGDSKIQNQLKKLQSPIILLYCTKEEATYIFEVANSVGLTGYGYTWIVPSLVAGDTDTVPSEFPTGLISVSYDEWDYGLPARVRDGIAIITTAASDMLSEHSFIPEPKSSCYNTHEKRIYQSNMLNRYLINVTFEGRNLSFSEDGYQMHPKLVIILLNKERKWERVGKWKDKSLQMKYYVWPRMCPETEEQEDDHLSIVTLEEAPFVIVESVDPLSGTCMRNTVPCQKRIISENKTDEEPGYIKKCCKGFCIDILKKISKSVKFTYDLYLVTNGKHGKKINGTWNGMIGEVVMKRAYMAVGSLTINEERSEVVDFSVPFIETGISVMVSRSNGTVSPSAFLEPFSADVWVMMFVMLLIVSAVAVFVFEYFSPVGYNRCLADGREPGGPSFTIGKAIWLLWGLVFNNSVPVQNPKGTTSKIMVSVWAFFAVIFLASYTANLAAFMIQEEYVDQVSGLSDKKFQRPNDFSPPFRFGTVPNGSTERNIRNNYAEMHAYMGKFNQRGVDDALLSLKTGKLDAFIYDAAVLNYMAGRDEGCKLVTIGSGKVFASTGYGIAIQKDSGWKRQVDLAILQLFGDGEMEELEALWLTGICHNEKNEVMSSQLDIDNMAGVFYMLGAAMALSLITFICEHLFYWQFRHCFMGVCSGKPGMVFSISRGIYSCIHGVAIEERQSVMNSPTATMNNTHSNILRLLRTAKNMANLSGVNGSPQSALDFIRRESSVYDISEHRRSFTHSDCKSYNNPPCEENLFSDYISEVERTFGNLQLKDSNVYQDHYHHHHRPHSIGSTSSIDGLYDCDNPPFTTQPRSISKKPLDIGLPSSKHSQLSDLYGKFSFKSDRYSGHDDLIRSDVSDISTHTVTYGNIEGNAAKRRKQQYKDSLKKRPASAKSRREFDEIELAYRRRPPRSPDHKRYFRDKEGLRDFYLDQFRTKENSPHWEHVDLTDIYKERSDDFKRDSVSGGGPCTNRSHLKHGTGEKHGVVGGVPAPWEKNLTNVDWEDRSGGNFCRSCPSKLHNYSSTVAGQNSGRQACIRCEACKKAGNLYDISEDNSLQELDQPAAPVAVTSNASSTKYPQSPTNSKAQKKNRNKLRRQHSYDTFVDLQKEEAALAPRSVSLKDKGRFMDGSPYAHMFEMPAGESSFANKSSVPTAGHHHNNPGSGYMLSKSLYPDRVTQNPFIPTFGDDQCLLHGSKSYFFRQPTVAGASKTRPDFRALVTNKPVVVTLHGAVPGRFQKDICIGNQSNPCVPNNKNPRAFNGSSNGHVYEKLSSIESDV
# Description: as §2
# Glutamate, Non-Selective = assay: Binding assay, Glutamate, Non-Selective; parameters: species or system rat; conditions: 10 μM
# Description: as §2
# [7] = tested on: Glycine, Strychnine-Sensitive; assay: Binding assay, Glycine, Strychnine-Sensitive; parameters: species or system rat; conditions: 10 μM
# Description: as §2
# NMDA receptor [8] = target: T1, NMDA receptor; conditions: cited from earlier work
# [9] = tested on: Schaffer collateral-CA1 synapses; conditions: cited from earlier work
# [10] = tested on: Schaffer collateral-CA1 synapses; conditions: cited from earlier work; remark: listed apart in the source
smiles,measurement,setting,value
O=C1NCC12CCCN2 (stereo not drawn) [AK-51],NMDA current (normalized pharmacologically-isolated NMDA receptor-gated current),"NMDA receptor [1]; 100 nM and 1 μM, 20 min bath application, whole-cell recording",enhances
same,single shock evoked INMDA,"NMDA receptor [1]; 100 nM, listed as NRX-10,051",enhanced; also recorded: marked enhancement
same,single shock evoked INMDA,NMDA receptor [1]; 1 μM,enhancement
same,single shock evoked INMDA,"NMDA receptor [1]; 1 μM, listed as NRX-10,051",enhanced
same,enhancement of INMDA compared among the tested compounds,NMDA receptor [1],less potency than compound B; also recorded: smaller in magnitude
same,magnitude of LTP,[2]; 100 nM,Enhancement
same,magnitude of LTP,"[2]; 1 μM, listed as AK5151",Enhancement
same,magnitude of LTP,"[2]; 1 μM, listed as NRX-10,051",doubled the magnitude
same,magnitude / induction of LTP,[2],enhances
same,LTD,[3],not altering
same,learning behavior in the T-maze test,"rats; 1.0 mg/kg by mouth, P<0.001",statistically significant enhancement
same,learning behavior in the T-maze test,"rats; 3.0 mg/kg by mouth, P<0.01",statistically significant enhancement
same,% Inhibition,"Glutamate, AMPA",−8%
same,% Inhibition,"Glutamate, Kainate",−13%
same,inhibition at 10 µM,[4],-7%
same,% Inhibition,"Glutamate, NMDA, Agonism",27%
same,inhibition at 10 µM,"Glutamate, NMDA, Glycine",-6%
same,inhibition at 10 µM,[5],-5%
same,inhibition at 10 µM,[6],-14%
same,% Inhibition,"Glutamate, Non-Selective",−10%
same,% Inhibition,[7],4%
CC(O)C(NC(=O)OCc1ccccc1)C(=O)N1CC2(CCCN2C(=O)OCc2ccccc2)C1=O (stereo not drawn) [AK-52],single shock evoked INMDA,NMDA receptor [1]; 100 nM,mild enhancement
same,single shock evoked INMDA,"NMDA receptor [1]; 100 nM, listed as AK52",enhancement
same,single shock evoked INMDA,NMDA receptor [1]; 1 μM,significant reduction
same,single shock evoked INMDA,"NMDA receptor [1]; 1 μM, listed as AK52",marked reduction
same,enhancement of INMDA compared among the tested compounds,NMDA receptor [1],weakest enhancer
same,magnitude of LTP,[2]; 100 nM,enhancement
same,magnitude of LTP,[2]; 1 μM,"slight, but significant, reduction"
same,magnitude / induction of LTP,[2],selectively enhances
same,LTD,[3],without altering; also recorded: did not affect
C[C@@H](O)[C@H](N)C(=O)N1CCC[C@H]1C(=O)N1CCC[C@H]1C(=O)N[C@H](C(N)=O)[C@@H](C)O [GLYX-13] (H-TPPT-NH2),burst INMDA,NMDA receptor [8]; 100 μM,reducing
same,burst-activated INMDA,NMDA receptor [8]; 1-10 μM,enhancement
same,single pulse evoked INMDA,NMDA receptor [8]; 1-10 μM,reducing
same,INMDA mediated by NMDA receptors containing NR2A/B subunits,NMDA receptor [8],selectively enhance
same,LTP,[9]; 100 μM,reducing
same,LTP,[9]; 1-10 μM,enhancement
same,simultaneous effect on LTP and LTD,[9],simultaneously increase LTP and reduce LTD
same,LTD,[10]; 100 μM,no longer affected
same,LTD,[10]; 1-10 μM,reducing
